According to ChEMBL document CHEMBL1131240, “Novel benzothiazolin-2-one and benzoxazin-3-one arylpiperazine derivatives with mixed 5HT1A/D2 affinity as potential atypical antipsychotics” (J Med Chem, 1998):

Assays:
[1] = target: T1, Alpha-1A adrenergic receptor (Bos taurus, UniProt P18130); experiment: Affinity towards Alpha-1A adrenergic receptor in membranes from bovine frontal cortex using [3H]prazosin; format: tissue-based
T1 sequence (P18130 whole entry): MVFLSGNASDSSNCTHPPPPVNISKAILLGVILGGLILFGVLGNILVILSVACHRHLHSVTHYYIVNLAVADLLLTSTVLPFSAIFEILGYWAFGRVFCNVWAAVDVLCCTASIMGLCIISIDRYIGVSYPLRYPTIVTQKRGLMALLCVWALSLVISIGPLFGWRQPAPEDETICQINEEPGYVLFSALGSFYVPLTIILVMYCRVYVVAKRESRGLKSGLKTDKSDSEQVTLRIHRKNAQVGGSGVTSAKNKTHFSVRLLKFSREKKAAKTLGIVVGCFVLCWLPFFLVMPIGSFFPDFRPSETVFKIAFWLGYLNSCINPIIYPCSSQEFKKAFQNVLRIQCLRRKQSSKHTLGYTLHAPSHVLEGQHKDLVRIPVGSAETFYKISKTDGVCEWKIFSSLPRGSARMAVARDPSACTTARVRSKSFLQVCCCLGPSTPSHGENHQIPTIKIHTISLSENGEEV

Mus musculus [2] = experiment: Compound was evaluated in vivo antagonism of mescaline-induced scratching(% vs controls), dose(mg/Kg ip)=4; format: functional
[3] = target: 5-hydroxytryptamine receptor 2A (Bos taurus, UniProt Q75Z89); experiment: Affinity towards 5-hydroxytryptamine 2A receptor in membranes from bovine frontal cortex using [3H]ketanserin; format: tissue-based
5-hydroxytryptamine receptor 2A, sequence (Q75Z89 whole entry): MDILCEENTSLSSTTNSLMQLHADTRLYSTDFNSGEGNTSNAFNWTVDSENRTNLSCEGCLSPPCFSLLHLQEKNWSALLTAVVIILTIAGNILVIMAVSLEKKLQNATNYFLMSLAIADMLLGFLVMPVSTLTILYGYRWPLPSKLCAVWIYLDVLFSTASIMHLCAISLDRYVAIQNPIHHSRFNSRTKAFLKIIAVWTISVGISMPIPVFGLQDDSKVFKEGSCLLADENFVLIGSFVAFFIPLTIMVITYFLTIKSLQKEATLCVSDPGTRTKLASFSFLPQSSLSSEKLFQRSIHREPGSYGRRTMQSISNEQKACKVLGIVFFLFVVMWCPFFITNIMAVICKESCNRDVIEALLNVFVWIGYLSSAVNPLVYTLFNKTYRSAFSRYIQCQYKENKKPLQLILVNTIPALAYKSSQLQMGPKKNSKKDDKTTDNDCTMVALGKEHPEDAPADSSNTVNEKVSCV

Mus musculus [4] = experiment: Tail suspension test in mice, dose(mg/Kg ip) = 4;duration of immobility(% vs controls); format: functional
[5] = target: 5-hydroxytryptamine receptor 1B (Rattus norvegicus, UniProt P28564); experiment: Affinity towards 5-hydroxytryptamine 1B receptor in membranes from rat frontal cortex using [3H]5-HT; format: tissue-based
5-hydroxytryptamine receptor 1B, sequence (P28564 whole entry): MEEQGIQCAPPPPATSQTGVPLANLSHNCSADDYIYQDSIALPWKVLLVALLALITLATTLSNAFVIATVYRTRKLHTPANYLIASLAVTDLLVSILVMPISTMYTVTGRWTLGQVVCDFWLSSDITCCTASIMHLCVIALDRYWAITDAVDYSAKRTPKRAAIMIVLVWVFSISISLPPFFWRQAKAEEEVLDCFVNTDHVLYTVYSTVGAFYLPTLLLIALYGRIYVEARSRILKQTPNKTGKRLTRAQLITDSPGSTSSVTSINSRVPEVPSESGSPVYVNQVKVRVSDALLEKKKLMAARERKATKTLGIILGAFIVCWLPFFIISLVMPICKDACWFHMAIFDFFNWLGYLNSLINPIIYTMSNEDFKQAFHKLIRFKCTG

Rattus norvegicus [6] = experiment: effects on Sidman Avoidance performance in rats, number of shocks (absolute change from control), p<0.001, dose(mg/Kg po) =32; format: functional
Rattus norvegicus [7] = experiment: effects on Sidman Avoidance performance in rats, number of escape failure (absolute change from control),n=10 animals per group, dose(mg/Kg po) =16; format: functional
Rattus norvegicus [8] = experiment: Effects on Sidman Avoidance performance in rats, number of shocks (absolute change from control), dose (mg/Kg po) =8; format: functional
Rattus norvegicus [9] = experiment: Antagonism of SKF 10047 -induced hypermotility (% vs controls) dose(mg/Kg po) = 8; format: functional
Rattus norvegicus [10] = experiment: Antagonism of PCP-induced stereotypies (%vs controls), dose(mg/Kg po) = 8; format: functional
Rattus norvegicus [11] = experiment: effects on Sidman Avoidance performance in rats, number of Avoidance performance(% change from control) p<0.001 dose(mg/Kg po) =32; format: functional
Rattus norvegicus [12] = experiment: effects on Sidman Avoidance performance in rats, number of Avoidance performance(% change from control), p<0.01,dose(mg/Kg po) =16; format: functional
Mus musculus [13] = experiment: Compound was evaluated in vivo antagonism of mescaline-induced scratching(% vs controls), dose(mg/Kg ip)=1; format: functional
Rattus norvegicus [14] = experiment: Antagonism of SKF 10047 -induced hypermotility (% vs controls) dose(mg/Kg po) = 0.5; format: functional
Rattus norvegicus [15] = experiment: Antagonism of PCP-induced stereotypies (%vs controls), dose(mg/Kg po) = 0.5; format: functional
Rattus norvegicus [16] = experiment: Antagonism of PCP-induced stereotypies (%vs controls), dose(mg/Kg po) = 2; format: functional
Rattus norvegicus [17] = experiment: Effects on Sidman Avoidance performance in rats, number of Avoidance performance (% change from control), dose (mg/Kg po) = 8; format: functional
Mus musculus [18] = experiment: Compound was evaluated in vivo antagonism of mescaline-induced scratching(% vs controls), dose(mg/Kg ip)=0.25; format: functional
Rattus norvegicus [19] = experiment: effects on Sidman Avoidance performance in rats, number of escape failure (absolute change from control), dose(mg/Kg po) =8; format: functional
Rattus norvegicus [20] = experiment: effects on Sidman Avoidance performance in rats, number of escape failure (absolute change from control), p<0.01, dose(mg/Kg po) =32; format: functional
Rattus norvegicus [21] = experiment: effects on Sidman Avoidance performance in rats, number of shocks (absolute change from control),n=10 animals per group, dose(mg/Kg po) =16; format: functional
Mus musculus [22] = experiment: Compound was evaluated in vivo antagonism of mescaline-induced scratching(% vs controls), dose(mg/Kg ip)=2; format: functional
Mus musculus [23] = experiment: Compound was evaluated in vivo antagonism of mescaline-induced scratching(% vs controls), dose(mg/Kg ip)=1, p<0.05
Mus musculus [24] = experiment: Compound was evaluated in vivo antagonism of mescaline-induced scratching(% vs controls), dose(mg/Kg ip)=4, p<0.001; format: functional
Mus musculus [25] = experiment: Compound was evaluated in vivo antagonism of mescaline-induced scratching(% vs controls), dose(mg/Kg ip)=2, ns
Mus musculus [26] = experiment: Compound was evaluated in vivo antagonism of mescaline-induced scratching(% vs controls), dose(mg/Kg ip)=8, p<0.001; format: functional
Rattus norvegicus [27] = experiment: effects on Sidman Avoidance performance in rats, number of escape failure (absolute change from control), p<0.01, dose(mg/Kg po) =1; format: functional
Rattus norvegicus [28] = experiment: effects on Sidman Avoidance performance in rats, number of shocks (absolute change from control), p<0.001, dose(mg/Kg po) =1; format: functional
Rattus norvegicus [29] = experiment: Antagonism of SKF 10047 -induced hypermotility (% vs controls) dose(mg/Kg po) = 1

Compound	IC50 [1]	IC50 [3]	IC50 [5]	Duration of immobility (Mus musculus [4])	also measured
COc1ccccc1N1CCN(CCc2ccc3c(c2)sc(=O)n3C)CC1	10 nM	500 nM	300 nM	89	No. of shocks (Rattus norvegicus [6]): 87.8; No. of escape failure (Rattus norvegicus [7]): 18.5; No. of shocks (Rattus norvegicus [8]): 7.3; Hypermotility (Rattus norvegicus [9]): 71; Hypermotility (Rattus norvegicus [10]): 21; No. of avoidance (Rattus norvegicus [11]): 78; No. of avoidance (Rattus norvegicus [12]): 38; Activity (Mus musculus [13]): 100; Hypermotility (Rattus norvegicus [14]): 39; Hypermotility (Rattus norvegicus [15]): 12; Hypermotility (Rattus norvegicus [16]): 2; No. of avoidance (Rattus norvegicus [17]): 12; Activity (Mus musculus [18]): 92; No. of escape failure (Rattus norvegicus [19]): 5.8; No. of escape failure (Rattus norvegicus [20]): 63.6; No. of shocks (Rattus norvegicus [21]): 23.8
Cn1c(=O)sc2cc(CCN3CCN(c4cccc(C(F)(F)F)c4)CC3)ccc21	400 nM	600 nM	70 nM	–	–
Oc1nc2ccc(CCN3CCN(c4ccccc4)CC3)cc2s1	–	40 nM	300 nM	–	–
Cn1c(=O)sc2cc(CCN3CCN(c4ccc(F)cc4)CC3)ccc21	30 nM	200 nM	3000 nM	–	–
Cn1c(=O)sc2cc(CCN3CCN(c4ccccc4O)CC3)ccc21	–	1100 nM	31 nM	–	–
COc1ccccc1N1CCN(CCc2ccc3nc(O)sc3c2)CC1	0.6 nM	300 nM	20 nM	–	–
Cn1c(=O)sc2cc(CCCCN3CCN(c4cccc(C(F)(F)F)c4)CC3)ccc21	200 nM	400 nM	1000 nM	–	–
Oc1nc2ccc(CCN3CCN(c4ccccc4O)CC3)cc2s1	–	530 nM	260 nM	92	Activity (Mus musculus [24]): 97; Activity (Mus musculus [25]): 71
Cn1c(=O)sc2cc(CCN3CCN(c4ccccc4)CC3)ccc21	> 100 nM	70 nM	200 nM	–	–
CN1CCN(C2=Nc3cc(Cl)ccc3Nc3ccccc32)CC1 [CLOZAPINE]	–	–	–	90	No. of shocks (Rattus norvegicus [6]): 71.1; Activity (Mus musculus [24]): 99; No. of escape failure (Rattus norvegicus [20]): 53.8
O=C(CCCN1CCC(O)(c2ccc(Cl)cc2)CC1)c1ccc(F)cc1 [HALOPERIDOL]	–	–	–	65	No. of escape failure (Rattus norvegicus [27]): 84.6; No. of shocks (Rattus norvegicus [28]): 99.7; Hypermotility (Rattus norvegicus [29]): 94

Continued, in another order:

IC50 [1]	IC50 [3]	IC50 [5]	Compound	Duration of immobility (Mus musculus [4])	also measured
1 nM	290 nM	61 nM	COc1ccccc1N1CCN(CCCc2ccc3nc(O)sc3c2)CC1	99	Activity (Mus musculus [2]): 96
6 nM	910 nM	360 nM	COc1ccccc1N1CCN(CCCc2ccc3c(c2)sc(=O)n3C)CC1	–	Activity (Mus musculus [22]): 73
0.5 nM	600 nM	180 nM	COc1ccccc1N1CCN(CCc2ccc3c(c2)OCC(=O)N3C)CC1	–	–
90 nM	200 nM	600 nM	O=c1[nH]c2ccc(CCN3CCN(c4cccc(C(F)(F)F)c4)CC3)cc2s1	–	–
20 nM	840 nM	–	COc1ccccc1N1CCN(CCCCc2ccc3c(c2)OCC(=O)N3C)CC1	124	Activity (Mus musculus [23]): 81
85 nM	620 nM	460 nM	CN1C(=O)COc2cc(CCN3CCN(c4cccc(C(F)(F)F)c4)CC3)ccc21	–	–
30 nM	1000 nM	300 nM	COc1ccccc1N1CCN(CCCCc2ccc3c(c2)sc(=O)n3C)CC1	36	–
30 nM	620 nM	280 nM	CN1C(=O)COc2cc(CCCCN3CCN(c4cccc(C(F)(F)F)c4)CC3)ccc21	–	Activity (Mus musculus [26]): 87; Activity (Mus musculus [25]): 60
45 nM	570 nM	400 nM	O=c1[nH]c2ccc(CCCCN3CCN(c4cccc(C(F)(F)F)c4)CC3)cc2s1	–	–
0.82 nM	150 nM	200 nM	COc1ccccc1N1CCN(CCCCc2ccc3[nH]c(=O)sc3c2)CC1	–	–
